Laboratory results reported in ChEMBL document CHEMBL3797155, “The 5-aromatic hydantoin-3-acetate derivatives as inhibitors of the tumour multidrug resistance efflux pump P-glycoprotein (ABCB1): Synthesis, crystallographic and biological studies” (Bioorg Med Chem, 2016).

Experiments:
Assay type in all cases: cell-based
[1] = Cytotoxicity against sensitive mouse L5178 cells after 24 hrs by MTT assay; details: l5178, 24 h
[2] = Cytotoxicity against multidrug resistant mouse L5178 cells after 24 hrs by MTT assay; details: l5178, 24 h
[3] = target: T1, ATP-dependent translocase ABCB1 (Homo sapiens, UniProt P08183); assay: Inhibition of human MDR1 expressed in mouse L5178 cells assessed as rhodamine-123 accumulation measured as fluorescence activity ratio at 20 uM after 20 mins by flow cytometry relative to control; details: l5178, 20 min
[4] = target: T1, ATP-dependent translocase ABCB1; assay: Inhibition of human MDR1 expressed in mouse L5178 cells assessed as rhodamine-123 accumulation measured as fluorescence activity ratio at 2 uM after 20 mins by flow cytometry relative to control; details: l5178, 20 min

T1 sequence (P08183 whole entry): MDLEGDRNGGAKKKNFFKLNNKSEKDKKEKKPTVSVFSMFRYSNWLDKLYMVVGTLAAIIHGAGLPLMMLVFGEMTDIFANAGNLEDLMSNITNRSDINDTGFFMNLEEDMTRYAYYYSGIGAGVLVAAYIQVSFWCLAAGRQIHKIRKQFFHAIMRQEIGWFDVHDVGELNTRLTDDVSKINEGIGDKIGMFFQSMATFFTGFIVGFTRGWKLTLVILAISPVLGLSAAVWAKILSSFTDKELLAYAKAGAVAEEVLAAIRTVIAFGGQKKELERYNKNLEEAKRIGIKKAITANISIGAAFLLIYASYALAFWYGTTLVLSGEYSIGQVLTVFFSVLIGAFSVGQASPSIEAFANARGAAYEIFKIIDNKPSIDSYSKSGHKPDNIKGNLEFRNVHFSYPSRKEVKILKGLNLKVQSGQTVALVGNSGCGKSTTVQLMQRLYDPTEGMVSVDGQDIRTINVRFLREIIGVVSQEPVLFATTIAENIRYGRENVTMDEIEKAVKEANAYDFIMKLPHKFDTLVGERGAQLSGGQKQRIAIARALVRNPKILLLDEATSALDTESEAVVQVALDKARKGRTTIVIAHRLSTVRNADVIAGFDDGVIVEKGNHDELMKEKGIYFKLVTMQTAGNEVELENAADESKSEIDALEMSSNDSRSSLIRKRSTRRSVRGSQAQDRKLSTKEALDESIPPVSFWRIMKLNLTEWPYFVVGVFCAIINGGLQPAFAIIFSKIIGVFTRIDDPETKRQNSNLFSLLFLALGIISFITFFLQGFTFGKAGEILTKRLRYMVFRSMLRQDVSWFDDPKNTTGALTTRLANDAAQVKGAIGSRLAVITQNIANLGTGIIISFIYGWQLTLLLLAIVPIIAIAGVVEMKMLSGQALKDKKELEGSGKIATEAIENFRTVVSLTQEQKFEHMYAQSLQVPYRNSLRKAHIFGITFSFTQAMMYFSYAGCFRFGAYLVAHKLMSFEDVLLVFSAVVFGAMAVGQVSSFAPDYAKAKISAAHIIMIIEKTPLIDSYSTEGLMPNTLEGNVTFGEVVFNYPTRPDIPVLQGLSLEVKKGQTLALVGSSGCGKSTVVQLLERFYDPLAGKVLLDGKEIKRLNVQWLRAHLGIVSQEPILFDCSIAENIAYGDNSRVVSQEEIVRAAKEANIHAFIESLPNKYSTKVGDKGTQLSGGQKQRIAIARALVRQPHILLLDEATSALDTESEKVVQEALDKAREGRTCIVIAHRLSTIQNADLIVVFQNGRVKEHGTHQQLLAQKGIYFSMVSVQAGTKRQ

Ratio [3]	Ratio [4]	SMILES	Activity [1]	Activity [2]
70.19	21.61	COC(=O)CN1C(=O)N(CCCCN2CCN(c3ccccc3)CC2)C2(C1=O)c1ccccc1-c1ccccc12	53 µM	> 100 µM
0.69	0.68	O=C(O)CN1C(=O)N(CCCCN2CCN(C(=O)c3ccco3)CC2)C2(C1=O)c1ccccc1-c1ccccc12	> 100 µM	> 100 µM
71.11	19.4	COC(=O)CN1C(=O)N(CCCCN2CCN(c3ccc(F)cc3)CC2)C2(C1=O)c1ccccc1-c1ccccc12	40 µM	56 µM
17.59	–	COc1ccc(CCN(C)CCCC(C#N)(c2ccc(OC)c(OC)c2)C(C)C)cc1OC (centres undefined) [VERAPAMIL]	–	–
98.11	132.85	COC(=O)CN1C(=O)N(CCCCN2CCN(c3cccc(Cl)c3Cl)CC2)C(c2ccccc2)(c2ccccc2)C1=O	18 µM	40 µM
99.82	77.15	COC(=O)CN1C(=O)N(CCCCN2CCN(c3ccccc3)CC2)C(c2ccccc2)(c2ccccc2)C1=O	13 µM	26 µM
0.86	0.84	COc1ccccc1N1CCN(CC(O)CN2C(=O)N(CC(=O)O)C(=O)C2(c2ccccc2)c2ccccc2)CC1 (centres undefined)	> 100 µM	> 100 µM
90.43	72.64	COC(=O)CN1C(=O)N(CC(O)CN2CCN(c3ccccc3)CC2)C(c2ccccc2)(c2ccccc2)C1=O (centres undefined)	33 µM	67 µM
24.89	1.86	COC(=O)CN1C(=O)N(CCCCN2CCN(C(=O)c3ccco3)CC2)C2(C1=O)c1ccccc1-c1ccccc12	59 µM	63 µM
72.04	35.38	COC(=O)CN1C(=O)N(CCCCN2CCN(c3ccccc3F)CC2)C2(C1=O)c1ccccc1-c1ccccc12	58 µM	84 µM
99.09	102.74	COC(=O)CN1C(=O)N(CCCCN2CCN(c3ccccc3F)CC2)C(c2ccccc2)(c2ccccc2)C1=O	> 100 µM	> 100 µM
116.27	89.34	COC(=O)CN1C(=O)N(CCCN2CCN(c3ccccc3)CC2)C(c2ccccc2)(c2ccccc2)C1=O	40 µM	> 100 µM
2.04	1	COc1ccccc1N1CCN(CCCCN2C(=O)N(CC(=O)O)C(=O)C2(c2ccccc2)c2ccccc2)CC1	> 100 µM	> 100 µM
